“And” between values parts separate entries of the source, which are not always exact repeats. Equal values may be shown once. Toxic doses and inconclusive results are not listed.
Tested on: L1210 leukemia ip in BDF1 mice, survival T/C
Assay: NCI In Vivo Anticancer Drug Screen. Data for tumor model L1210 Leukemia (intraperitoneal) in B6D2F1 (BDF1) mice
Details: endpoint: mean survival time, higher = longer survival
Method in brief: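 Transplanted-tumor mice were given test agent; controls received vehicle only. Survival readings from the two groups were divided (treated over control).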

[1] = dose: 100.0 mg/kg/injection, schedule: Q01DX001 (ip), vehicle: saline
[2] = dose: 200.0 mg/kg/injection, schedule: Q01DX001 (ip), vehicle: saline
[3] = dose: 400.0 mg/kg/injection, schedule: Q01DX001 (ip), vehicle: saline
[4] = dose: 100.0 mg/kg/injection, schedule: Q01DX001 (ip), vehicle: carboxymethylcellulose (CMC)
[5] = dose: 200.0 mg/kg/injection, schedule: Q01DX001 (ip), vehicle: carboxymethylcellulose (CMC)
[6] = dose: 100.0 mg/kg/injection, schedule: Q04DX003 (ip), vehicle: saline with Tween-80
[7] = dose: 200.0 mg/kg/injection, schedule: Q04DX003 (ip), vehicle: saline with Tween-80
[8] = dose: 400.0 mg/kg/injection, schedule: Q04DX003 (ip), vehicle: saline with Tween-80
[9] = dose: 100.0 mg/kg/injection, schedule: Q01DX001 (ip), vehicle: other
[10] = dose: 200.0 mg/kg/injection, schedule: Q01DX001 (ip), vehicle: other
[11] = dose: 400.0 mg/kg/injection, schedule: Q01DX001 (ip), vehicle: other
[12] = dose: 50.0 mg/kg/injection, schedule: Q04DX003 (ip), vehicle: Klucel (hydroxypropylcellulose) (HPC)
[13] = dose: 100.0 mg/kg/injection, schedule: Q01DX009 (ip), vehicle: saline with Tween-80
[14] = dose: 200.0 mg/kg/injection, schedule: Q01DX009 (ip), vehicle: saline with Tween-80
[15] = dose: 400.0 mg/kg/injection, schedule: Q01DX009 (ip), vehicle: saline with Tween-80
[16] = dose: 100.0 mg/kg/injection, schedule: Q04DX003 (ip), vehicle: Klucel (hydroxypropylcellulose) (HPC)
[17] = dose: 200.0 mg/kg/injection, schedule: Q04DX003 (ip), vehicle: Klucel (hydroxypropylcellulose) (HPC)

## COC(=O)c1ccc(=O)n(C/C=C(\C)CCC=C(C)C)c1
[1]
  T/C: 95 % of control
dose: 100.0 mg/kg/injection, schedule: Q01DX009 (ip), vehicle: saline
  T/C: 104 % of control
[2]
  T/C: 97 % of control
dose: 200.0 mg/kg/injection, schedule: Q01DX009 (ip), vehicle: saline
  T/C: 90 % of control
[3]
  T/C: 101 % of control
dose: 400.0 mg/kg/injection, schedule: Q01DX009 (ip), vehicle: saline
  T/C: 101 % of control

## CCCCCCCCOP(=O)(N1CC1)N1CC1
dose: 1.0 mg/kg/injection, schedule: Q01DX015 (ip), vehicle: saline
  T/C: 94 % of control
dose: 2.0 mg/kg/injection, schedule: Q01DX015 (ip), vehicle: saline
  T/C: 95 % of control
dose: 4.0 mg/kg/injection, schedule: Q01DX015 (ip), vehicle: saline
  T/C: 97 % of control
dose: 8.0 mg/kg/injection, schedule: Q01DX001 (ip), vehicle: saline
  T/C: 119 % of control
dose: 8.2 mg/kg/injection, schedule: Q01DX015 (ip), vehicle: saline
  T/C: 163 % of control
dose: 10.5 mg/kg/injection, schedule: Q01DX015 (ip), vehicle: saline
  T/C: 165 % of control and 166 % of control
dose: 12.4 mg/kg/injection, schedule: Q01DX015 (ip), vehicle: saline
  T/C: 204 % of control
dose: 16.0 mg/kg/injection, schedule: Q01DX015 (ip), vehicle: saline
  T/C: 209 % of control
dose: 18.0 mg/kg/injection, schedule: Q01DX015 (ip), vehicle: saline
  T/C: 235 % of control
dose: 18.6 mg/kg/injection, schedule: Q01DX015 (ip), vehicle: saline
  T/C: 214 % of control
dose: 28.0 mg/kg/injection, schedule: Q01DX001 (ip), vehicle: saline
  T/C: 153 % of control
dose: 33.5 mg/kg/injection, schedule: Q01DX015 (ip), vehicle: saline
  T/C: 207 % of control
dose: 44.4 mg/kg/injection, schedule: Q01DX001 (ip), vehicle: saline
  T/C: 150 % of control
dose: 50.0 mg/kg/injection, schedule: Q01DX015 (ip), vehicle: saline
  T/C: 92 % of control
dose: 66.7 mg/kg/injection, schedule: Q01DX001 (ip), vehicle: saline
  T/C: 157 % of control and 170 % of control
dose: 150.0 mg/kg/injection, schedule: Q01DX001 (ip), vehicle: saline
  T/C: 213 % of control

## CCc1c(CO)cnc(C)c1OP(=O)(O)O
[4]
  T/C: 100 % of control
[5]
  T/C: 96 % of control
dose: 400.0 mg/kg/injection, schedule: Q01DX001 (ip), vehicle: carboxymethylcellulose (CMC)
  T/C: 102 % of control

## CCCCCCCCCCCCCCCCCCNC(=S)Nc1ccccc1
[6]
  T/C: 95 % of control
[7]
  T/C: 90 % of control
[8]
  T/C: 92 % of control

## O=C(OCCN1CCCCCCCC1)C(c1ccccc1)c1ccccc1
[9]
  T/C: 101 % of control
[10]
  T/C: 90 % of control
[11]
  T/C: 110 % of control

## CC(C)(O)C1C2OC(=O)C1C1(O)CC3OC34C(=O)OC2C14C (stereo unspecified)
dose: 12.5 mg/kg/injection, schedule: Q04DX003 (ip), vehicle: Klucel (hydroxypropylcellulose) (HPC)
  T/C: 100 % of control
dose: 25.0 mg/kg/injection, schedule: Q04DX003 (ip), vehicle: Klucel (hydroxypropylcellulose) (HPC)
  T/C: 100 % of control
[12]
  T/C: 100 % of control
dose: 75.0 mg/kg/injection, schedule: Q01DX001 (ip), vehicle: other
  T/C: 102 % of control
dose: 150.0 mg/kg/injection, schedule: Q01DX001 (ip), vehicle: other
  T/C: 109 % of control

## Cn1cnc2c(C#N)c(C#N)nn2c1=O
dose: 50.0 mg/kg/injection, schedule: Q01DX001 (ip), vehicle: carboxymethylcellulose (CMC)
  T/C: 93 % of control
[4]
  T/C: 90 % of control
[5]
  T/C: 93 % of control

## CNNCc1ccccc1
[1]
  T/C: 117 % of control
[2]
  T/C: 115 % of control

## Cc1ccc(S(=O)(=O)OC2COCOC2)cc1
[13]
  T/C: 110 % of control
[14]
  T/C: 102 % of control
[15]
  T/C: 91 % of control

## CC(C)(C)NC(=O)C1C2C=CC(CC2)C1C(=O)NC(C)(C)C (stereo unspecified)
[6]
  T/C: 100 % of control
[7]
  T/C: 96 % of control
[8]
  T/C: 92 % of control

## O=[N+]([O-])c1ccc(C(Cl)S(=O)(=O)c2ccccc2)cc1 (stereo unspecified)
dose: 50.0 mg/kg/injection, schedule: Q01DX001 (ip), vehicle: saline
  T/C: 100 % of control
dose: 50.0 mg/kg/injection, schedule: Q01DX009 (ip), vehicle: Klucel (hydroxypropylcellulose) (HPC)
  T/C: 103 % of control
[12]
  T/C: 99 % of control
[1]
  T/C: 108 % of control
dose: 100.0 mg/kg/injection, schedule: Q01DX009 (ip), vehicle: Klucel (hydroxypropylcellulose) (HPC)
  T/C: 92 % of control
dose: 100.0 mg/kg/injection, schedule: Q04DX002 (ip), vehicle: Klucel (hydroxypropylcellulose) (HPC)
  T/C: 93 % of control and 100 % of control
[16]
  T/C: 111 % of control
dose: 119.0 mg/kg/injection, schedule: Q01DX001 (ip), vehicle: Klucel (hydroxypropylcellulose) (HPC)
  T/C: 105 % of control
dose: 178.0 mg/kg/injection, schedule: Q01DX001 (ip), vehicle: Klucel (hydroxypropylcellulose) (HPC)
  T/C: 100 % of control
[2]
  T/C: 97 % of control
dose: 200.0 mg/kg/injection, schedule: Q01DX009 (ip), vehicle: Klucel (hydroxypropylcellulose) (HPC)
  T/C: 97 % of control
dose: 200.0 mg/kg/injection, schedule: Q04DX002 (ip), vehicle: Klucel (hydroxypropylcellulose) (HPC)
  T/C: 100 % of control
[17]
  T/C: 107 % of control
dose: 266.0 mg/kg/injection, schedule: Q01DX001 (ip), vehicle: Klucel (hydroxypropylcellulose) (HPC)
  T/C: 100 % of control
dose: 400.0 mg/kg/injection, schedule: Q01DX001 (ip), vehicle: Klucel (hydroxypropylcellulose) (HPC)
  T/C: 97 % of control
[3]
  T/C: 95 % of control
dose: 400.0 mg/kg/injection, schedule: Q01DX009 (ip), vehicle: Klucel (hydroxypropylcellulose) (HPC)
  T/C: 92 % of control
dose: 400.0 mg/kg/injection, schedule: Q04DX003 (ip), vehicle: Klucel (hydroxypropylcellulose) (HPC)
  T/C: 101 % of control
dose: 600.0 mg/kg/injection, schedule: Q01DX001 (ip), vehicle: Klucel (hydroxypropylcellulose) (HPC)
  T/C: 94 % of control
dose: 600.0 mg/kg/injection, schedule: Q04DX002 (ip), vehicle: Klucel (hydroxypropylcellulose) (HPC)
  T/C: 100 % of control

## O=C(Nc1ccc(Cl)cc1)c1cccc([N+](=O)[O-])c1O
dose: 6.25 mg/kg/injection, schedule: Q01DX009 (ip), vehicle: Klucel (hydroxypropylcellulose) (HPC)
  T/C: 102 % of control
dose: 12.5 mg/kg/injection, schedule: Q01DX009 (ip), vehicle: Klucel (hydroxypropylcellulose) (HPC)
  T/C: 106 % of control
dose: 25.0 mg/kg/injection, schedule: Q01DX009 (ip), vehicle: Klucel (hydroxypropylcellulose) (HPC)
  T/C: 95 % of control

## COP(=O)(OC)C1CC2CCC1C2 (stereo unspecified)
dose: 100.0 mg/kg/injection, schedule: Q04DX003 (ip), vehicle: acetone
  T/C: 102 % of control
dose: 200.0 mg/kg/injection, schedule: Q04DX003 (ip), vehicle: acetone
  T/C: 102 % of control
dose: 400.0 mg/kg/injection, schedule: Q04DX003 (ip), vehicle: acetone
  T/C: 100 % of control

## CC(=O)Nc1ccc2c(c1)C(=O)c1ccccc1-2
dose: 100.0 mg/kg/injection, schedule: Q04DX003 (ip), vehicle: saline
  T/C: 96 % of control
dose: 200.0 mg/kg/injection, schedule: Q04DX003 (ip), vehicle: saline
  T/C: 100 % of control
dose: 400.0 mg/kg/injection, schedule: Q04DX003 (ip), vehicle: saline
  T/C: 94 % of control

## O=C(/C=C/c1ccccc1)c1cccc(Br)c1
[13]
  T/C: 106 % of control
[6]
  T/C: 97 % of control
[14]
  T/C: 91 % of control
[7]
  T/C: 96 % of control
[15]
  T/C: 96 % of control
[8]
  T/C: 96 % of control

## C/C(=N\O)C(C)(C)O
dose: 100.0 mg/kg/injection, schedule: Q04DX002 (ip), vehicle: saline
  T/C: 101 % of control
dose: 200.0 mg/kg/injection, schedule: Q04DX002 (ip), vehicle: saline
  T/C: 108 % of control
dose: 400.0 mg/kg/injection, schedule: Q04DX002 (ip), vehicle: saline
  T/C: 105 % of control

## CCCCNC(=O)NS(=O)(=O)c1ccc(CCl)cc1
[12]
  T/C: 98 % of control
[16]
  T/C: 102 % of control
[17]
  T/C: 100 % of control

## O=C(N/N=C\c1ccc(Cl)cc1Cl)c1ccco1
[9]
  T/C: 90 % of control
[10]
  T/C: 96 % of control
[11]
  T/C: 93 % of control

Source: PubChem BioAssay AID248 (DTP/NCI, 2004)
